Results: US4892875A, “Substituted heterocyclylalkyl esters of 1,4-dihydropyridine-3,5-dicarboxylic acids” (Takeda Chemical Industries, Ltd., priority 1982, dated 1990)
Structures can show the parent of a compound that is named as a salt. Where two headings read alike, the source gives them in different places.

Assays:
[1] = test system: spontaneously hypertensive rats; test: Antihypertensive action (systolic blood pressure, caudal artery) in male spontaneously hypertensive rats; format: in vivo, rat; conditions: 10 mg/kg oral; for Change in blood pressure 1 hr. after treatment / Change in blood pressure 5 hrs. after treatment: after minus before medication, * P < 0.05 vs control; for Duration of antihypertensive effect: measured 1, 5, 8 and 24 hours after administration
Method: Male spontaneously hypertensive rats aged 10 to 11 weeks were used (in groups of 3 to 6 individuals). […] Each test compound was suspended in a 5% solution of gum arabic and orally administered. The dosage was 10 mg/kg for all compounds. Animals in a control group was given the above solution of gum arabic only.

[2] = test system: spontaneously hypertensive rats; test: Renal blood flow increasing effect (renal circulation improving effect) in anesthetized male spontaneously hypertensive rats; format: in vivo; conditions: Rattus norvegicus
Method: Male spontaneously hypertensive rats aged 10 to 11 weeks (3 to 6 animals per group) were anesthetized with pentobarbital and used. After laparotomy, an electromagnetic flowmeter probe (Narco) was fitted to the left renal artery and the renal blood flow was continuously recorded on a polygraph (Sanei Sokki K.K.). […] Each test compound was dissolved in polyethylene glycol 400 to prepare a stock solution. This stock solution was diluted five-fold with physiological saline and the dilution was intravenously administered to rats in a volume of 0.5 ml/kg body weight. The dosage was 0.01 mg/kg for all test compounds. The renal blood flow was measured over a period of 40 minutes following the medication. The values shown are: [formula]

[3] = 1 min, 0.01 mg/kg intravenous, 1 minute, * P < 0.05 vs control, read-out: Change in renal blood flow, 1 Minute after medication
[4] = 20 min, 0.01 mg/kg intravenous, 20 minutes, * P < 0.05 vs control, read-out: Change in renal blood flow, 20 Minutes after medication
[5] = 40 min, 0.01 mg/kg intravenous, 40 minutes, * P < 0.05 vs control, read-out: Change in renal blood flow, 40 Minutes after medication

Structure (SMILES) | Change in blood pressure 1 hr. after treatment [1] | Change in blood pressure 5 hrs. after treatment [1] | Duration of antihypertensive effect [1] | change in vivo at 0.01 mg/kg [2, 3] | change in vivo at 0.01 mg/kg [2, 4] | change in vivo at 0.01 mg/kg [2, 5] | change in vivo at 0.01 mg/kg ([2]; iv, 1 min, read-out: Change in renal blood flow, 1 Minute after medication) | change in vivo at 0.01 mg/kg ([2]; iv, 20 min, read-out: Change in renal blood flow, 20 Minutes after medication) | change in vivo at 0.01 mg/kg ([2]; iv, 40 min, read-out: Change in renal blood flow, 40 Minutes after medication)
COC(=O)C1=C(C)NC(C)=C(C(=O)OCCN2CCN(C(c3ccccc3)c3ccccc3)CC2)C1c1cccc([N+](=O)[O-])c1.Cl.Cl (stereo not drawn) [Example 1, 2-(4-benzhydryl-1-piperazinyl)ethyl methyl 2,6-dimethyl-4-(3-nitrophenyl)-1,4-dihydropyridine-3,5-dicarboxylate dihydrochloride] | -89 mmHg | -91 mmHg | > 24 h | 10.4% | 13.4% | 12.8% | – | – | –
COC(=O)C1=C(C)NC(C)=C(C(=O)OCCN2CCN(C(c3ccccc3)c3ccccc3)CC2)C1c1cccc(Cl)c1Cl (stereo not drawn) [Example 6, 2-(4-benzhydryl-1-piperazinyl)ethyl methyl 4-(2,3-dichlorophenyl)-2,6-dimethyl-1,4-dihydropyridine-3,5-dicarboxylate] | -30 mmHg | -33 mmHg | 8 to 24 h | 4.5% | 7.5% | 6% | – | – | –
COC(=O)C1=C(C)NC(C)=C(C(=O)OCCN2CCN(C(c3ccc(F)cc3)c3ccc(F)cc3)CC2)C1c1cccc([N+](=O)[O-])c1 (stereo not drawn) [Example 8, 2-[4-(4,4'-difluorobenzhydryl)-1-piperazinyl]ethyl methyl 2,6-dimethyl-4-(3-nitrophenyl)-1,4-dihydropyridine-3,5-dicarboxylate] | -96 mmHg | -98 mmHg | > 24 h | 5.7% | 6.4% | 9.7% | – | – | –
COC(=O)C1=C(C)NC(C)=C(C(=O)OCCN2CCN(C(c3ccc(OC)cc3)c3ccc(OC)cc3)CC2)C1c1cccc([N+](=O)[O-])c1 (stereo not drawn) [Example 10, 2-[4-(4,4'-dimethoxybenzhydryl)-1-piperazinyl]ethyl methyl 2,6-dimethyl-4-(3-nitrophenyl)-1,4-dihydropyridine-3,5-dicarboxylate] | -88 mmHg | -57 mmHg | 8 to 24 h | 6.9% | 8.3% | 6.8% | – | – | –
COC(=O)C1=C(C)NC(C)=C(C(=O)OCCN2CCCN(C(c3ccccc3)c3ccccc3)CC2)C1c1cccc([N+](=O)[O-])c1 (stereo not drawn) [Example 15, 2-(4-benzhydrylhomopiperazin-1-yl)-ethyl methyl 2,6-dimethyl-4-(3-nitrophenyl)-1,4-dihydropyridine-3,5-dicarboxylate] | -38 mmHg | -18 mmHg | 5 to 8 h | 4.2% | 4.2% | 2.9% | – | – | –
COC(=O)C1=C(C)NC(C)=C(C(=O)OCCN2CCN(c3cccc(C(F)(F)F)c3)CC2)C1c1cccc([N+](=O)[O-])c1 (stereo not drawn) [Example 18, methyl 2-[4-(3-trifluoromethylphenyl)-1-piperazinyl]ethyl 2,6-dimethyl-4-(3-nitrophenyl)-1,4-dihydropyridine-3,5-dicarboxylate] | -68 mmHg | -43 mmHg | 8 to 24 h | 8.8% | 4.2% | 5% | – | – | –
COC(=O)C1=C(C)NC(C)=C(C(=O)OCCN2CCN(C(c3ccccc3)c3ccccc3)CC2)C1c1cccc(Cl)c1 (stereo not drawn) [Example 22, 2-(4-benzhydryl-1-piperazinyl)ethyl methyl 4-(3-chlorophenyl)-2,6-dimethyl-1,4-dihydropyridine-3,5-dicarboxylate] | -97 mmHg | -83 mmHg | 8 to 24 h | 7.5% | 7.8% | 9.6% | – | – | –
COC(=O)C1=C(C)NC(C)=C(C(=O)OCCN2CCN(C(c3ccccc3)c3ccccc3)CC2)C1c1cccc(C(F)(F)F)c1 (stereo not drawn) [Example 23, 2-(4-benzhydryl-1-piperazinyl)ethyl methyl 2,6-dimethyl-4-(3-trifluoromethylphenyl)-1,4-dihydropyridine-3,5-dicarboxylate] | -59 mmHg | -66 mmHg | 8 to 24 h | 6.7% | 9.7% | 10.9% | – | – | –
CCOC(=O)C1=C(C)NC(C)=C(C(=O)OCCN2CCN(C(c3ccc(C)cc3)c3ccc(C)cc3)CC2)C1c1cccc([N+](=O)[O-])c1 (stereo not drawn) [Example 31, 2-[4-(4,4'-dimethylbenzhydryl)-1-piperazinyl]ethyl ethyl 2,6-dimethyl-4-(3-nitrophenyl)-1,4-dihydropyridine-3,5-dicarboxylate] | -77 mmHg | -77 mmHg | 8 to 24 h | 3.3% | 4.3% | 1.8% | – | – | –
COC(=O)C1=C(C)NC(C)=C(C(=O)OCCCN2CCN(C(c3ccccc3)c3ccccc3)CC2)C1c1cccc([N+](=O)[O-])c1 (stereo not drawn) [Example 37, 3-(4-benzhydryl-1-piperazinyl)propyl methyl 2,6-dimethyl-4-(3-nitrophenyl)-1,4-dihydropyridine-3,5-dicarboxylate] | -63 mmHg | -30 mmHg | ca. 8 hrs. | 8.5% | 10.8% | 11.3% | – | – | –
COC(=O)C1=C(C)NC(C)=C(C(=O)OCCN2CCN(c3ccccc3)CC2)C1c1cccc([N+](=O)[O-])c1 (stereo not drawn) [Example 53, methyl 2-(4-phenyl-1-piperazinyl)ethyl 2,6-dimethyl-4-(3-nitrophenyl)-1,4-dihydropyridine-3,5-dicarboxylate] | -60 mmHg | -34 mmHg | ca. 8 hrs. | – | – | – | – | – | –
COC(=O)C1=C(C)NC(C)=C(C(=O)OCCN2CCN(c3ccc(C)c(Cl)c3)CC2)C1c1cccc([N+](=O)[O-])c1 (stereo not drawn) [Example 57, 2-[4-(3-chloro-4-methylphenyl)-1-piperazinyl]ethyl methyl 2,6-dimethyl-4-(3-nitrophenyl)-1,4-dihydropyridine-3,5-dicarboxylate] | -85 mmHg | -69 mmHg | 8 to 24 h | – | – | – | – | – | –
COC(=O)C1=C(C)NC(C)=C(C(=O)OCCN2CCN(c3cccc(Cl)c3Cl)CC2)C1c1cccc([N+](=O)[O-])c1 (stereo not drawn) [Example 58, 2-[4-(2,3-dichlorophenyl)-1-piperazinyl]ethyl methyl 2,6-dimethyl-4-(3-nitrophenyl)-1,4-dihydropyridine-3,5-dicarboxylate] | -27 mmHg | -39 mmHg | 8 to 24 h | – | – | – | – | – | –
COC(=O)C1=C(C)NC(C)=C(C(=O)OCCN2CCN(C(c3ccccc3)c3ccccc3)CC2)C1c1cccc2nonc12.Cl.Cl (stereo not drawn) [Example 60, 2-(4-benzhydryl-1-piperazinyl)ethyl methyl 4-(2,1,3-benzoxadiazol-4-yl)-2,6-dimethyl-1,4-dihydropyridine-3,5-dicarboxylate dihydrochloride] | -98 mmHg | -90 mmHg | 8 to 24 h | – | – | – | – | – | –
COC(=O)C1=C(C)NC(C)=C(C(=O)OCCN(C)Cc2ccccc2)C1c1cccc([N+](=O)[O-])c1 (stereo not drawn) [Nicardipine.HCl, reference compound] | -38 mmHg | +2 mmHg | < 5 h | -15% | -1.9% | 0.3% | – | – | –
COC(=O)C1=C(C)NC(C)=C(C(=O)OC)C1c1ccccc1[N+](=O)[O-] [Nifedipine, reference compound] | -45 mmHg | -3 mmHg | < 5 h | – | – | – | 3% | 3.1% | 2.2%
